Values joined by “and” are separate entries in the source; they are usually repeats but may differ in a detail not shown here. Equal entries are not always repeated.
What was measured:
[1] = Nitric oxide (NO) radical scavenging; type: biochemical; details: mean ± SE, n = 3; for NO (%): inhibition % at 20 µg/mL
Procedure: (§1) The antioxidant activity was assessed using the iron reducing power (IRP) and the total antioxidant capacity (TAC). Ascorbic acid served as a standard to calculate the inhibition percentages (%) and the median inhibitory concentration (IC50) of each tested compound against the following radicals: nitric oxide (NO), hydroxyl (OH), hydrogen peroxide (H2O2), ABTS [79], and DPPH [80].

ABTS radical scavenging = type: biochemical; details: mean ± SE, n = 3; for ABTS (%): inhibition % at 20 µg/mL
Procedure: as §1

α-amylase = target: T1, α-amylase (Homo sapiens, UniProt P04746); assay: α-Amylase inhibition; type: biochemical; details: for inhibition at 20 µg/mL: read-out: α-Amylase Inhibition (%)
T1 sequence (P04746 16-511): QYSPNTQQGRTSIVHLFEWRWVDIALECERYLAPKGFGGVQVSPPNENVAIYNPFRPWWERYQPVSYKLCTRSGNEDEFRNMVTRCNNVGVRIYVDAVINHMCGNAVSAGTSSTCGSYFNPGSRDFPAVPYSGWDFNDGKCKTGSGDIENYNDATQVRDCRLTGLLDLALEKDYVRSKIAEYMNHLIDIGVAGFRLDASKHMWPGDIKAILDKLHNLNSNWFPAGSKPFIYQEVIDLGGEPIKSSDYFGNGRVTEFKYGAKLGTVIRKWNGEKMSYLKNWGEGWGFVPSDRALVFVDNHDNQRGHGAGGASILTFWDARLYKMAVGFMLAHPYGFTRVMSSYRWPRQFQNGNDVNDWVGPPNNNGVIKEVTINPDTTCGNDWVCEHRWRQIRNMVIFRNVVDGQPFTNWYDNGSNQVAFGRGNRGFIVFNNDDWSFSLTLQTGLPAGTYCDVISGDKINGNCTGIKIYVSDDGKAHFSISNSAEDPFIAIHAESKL
Procedure: (§2) The IC50 and inhibition percentages (Inhib. %) of the enzymes α-amylase and α-glucosidase were calculated.

[2] = Iron-reducing power (IRP); type: biochemical; details: mean ± SE, n = 3
Procedure: as §1

[3] = Total antioxidant capacity (TAC); type: biochemical; details: mean ± SE, n = 3
Procedure: as §1

DPPH radical scavenging = type: biochemical; details: mean ± SE, n = 3; for DPPH (%): inhibition % at 20 µg/mL
Procedure: as §1

α-glucosidase = assay: α-Glucosidase inhibition; type: biochemical; details: for inhibition of α-glucosidase: at 20 µg/mL
Procedure: as §2

[4] = Hydrogen peroxide (H2O2) scavenging; type: biochemical; details: mean ± SE, n = 3; for H2O2 (%): inhibition % at 20 µg/mL
Procedure: as §1

proteinase enzyme = assay: Proteinase inhibition (anti-arthritic); type: biochemical; design: Proteinase Inhibition (%): concentration or dose not given beside the values; details: mean ± SE, n = 3
Procedure: (§3) Anti-arthritic activity was evaluated using diclofenac sodium as the reference drug. The inhibition percentage and IC50 were determined for protein denaturation and the proteinase enzyme.

[5] = target: acetylcholinesterase (AChE) (Homo sapiens, UniProt P22303); assay: biochemical; details: mean ± SE, n = 3; for IC50: read-out: AChE IC50 (µg/mL) (converted)
Procedure: The inhibition percentage and IC50 of the acetylcholinesterase (AChE) enzyme were measured using the Ellman method.

[6] = Hydroxyl (OH) radical scavenging; type: biochemical; details: mean ± SE, n = 3; for OH (%): inhibition % at 20 µg/mL
Procedure: as §1

protein denaturation = assay: Protein denaturation inhibition (anti-arthritic); type: biochemical; design: concentration or dose not given beside the values; details: mean ± SE, n = 3
Procedure: as §3

acetylcholinesterase (AChE), sequence (P22303 32-614, species assumed): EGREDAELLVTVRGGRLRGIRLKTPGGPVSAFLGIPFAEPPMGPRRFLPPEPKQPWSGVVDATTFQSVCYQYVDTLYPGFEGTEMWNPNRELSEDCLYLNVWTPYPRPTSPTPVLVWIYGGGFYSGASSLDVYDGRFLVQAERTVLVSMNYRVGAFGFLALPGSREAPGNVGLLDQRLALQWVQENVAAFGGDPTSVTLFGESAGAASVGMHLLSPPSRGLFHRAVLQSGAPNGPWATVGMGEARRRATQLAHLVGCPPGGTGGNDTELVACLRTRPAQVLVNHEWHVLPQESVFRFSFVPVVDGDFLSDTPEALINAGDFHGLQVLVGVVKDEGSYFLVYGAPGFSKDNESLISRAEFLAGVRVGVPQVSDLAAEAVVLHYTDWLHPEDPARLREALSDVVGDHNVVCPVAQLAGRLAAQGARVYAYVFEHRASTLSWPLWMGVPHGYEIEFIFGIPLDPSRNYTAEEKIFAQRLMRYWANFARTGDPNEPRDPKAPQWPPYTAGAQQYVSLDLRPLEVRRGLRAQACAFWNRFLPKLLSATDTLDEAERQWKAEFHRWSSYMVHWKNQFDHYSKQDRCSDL

Row | SMILES | NO radical scavenging IC50 [1] [µg/mL] | ABTS radical scavenging IC50 (ABTS radical scavenging) [µg/mL] | IC50 (α-amylase) [µM] | inhibition at 20 µg/mL (α-amylase) [%] | IRP [2] | TAC (mg Gallic Acid/g) [3] | DPPH radical scavenging IC50 (DPPH radical scavenging) [µg/mL] | α-Glucosidase IC50 (α-glucosidase) [µg/mL] | inhibition of α-glucosidase (α-glucosidase) [%] | H2O2 scavenging IC50 [4] [µg/mL] | Proteinase IC50 (proteinase enzyme) [µg/mL] | Proteinase Inhibition (%) (proteinase enzyme) | inhibition at 20 µg/mL [5] [%] | IC50 [5] [µM] | OH radical scavenging IC50 [6] [µg/mL] | Protein Denaturation Inhibition (%) (protein denaturation) | NO (%) [1] [%] | ABTS (%) (ABTS radical scavenging) | DPPH (%) (DPPH radical scavenging) | H2O2 (%) [4] [%] | further results
1 | O=c1/c(=C\[C@@H](O)[C@@H](O)[C@H](O)[C@H](O)CO)sc2nc3sc4c(c3c(=O)n12)CCCC4 [8b, (E)-2-((2R,3R,4R,5R)-2,3,4,5,6-pentahydroxyhexylidene)-6,7,8,9-tetrahydro-5H-benzo-[4,5]thieno [2,3-d]thiazolo [3,2-a]pyrimidine-3,5(2H)-dione] | 6.88 ± 0.16 | 4.78 ± 0.05 | 15.4 | 61.5 ± 0.74 | 60.86 µg/mL and 60.86 ± 0.78 µg/mL | 68.01 mg Gallic Acid/g and 68.01 ± 0.78 mg Gallic Acid/g | 6.01 ± 0.12 | 3.85 ± 0.05 | 54.78 ± 0.74 | 10.28 ± 0.12 | 65.93 ± 2.02 | 7.63 ± 0.19 | 5.19 ± 0.16 | 126 | 9.24 ± 0.05 | 11.80 ± 0.19 | – | – | – | – | –
2 | O=c1/c(=C\[C@H](O)[C@@H](O)[C@@H](O)[C@H](O)CO)sc2nc3sc4c(c3c(=O)n12)CCCC4 [8c, (E)-2-((2S,3R,4S,5R)-2,3,4,5,6-pentahydroxyhexylidene)-6,7,8,9-tetrahydro-5H-benzo [4,5]-thieno [2,3-d]thiazolo [3,2-a]-pyrimidine-3,5(2H)-dione] | 60.02 ± 1.12 | 20.68 ± 0.24 | – | 11.9 ± 0.19 | 8.75 ± 0.20 µg/mL | 15.90 ± 0.20 mg Gallic Acid/g | 31.07 ± 0.34 | 41.00 ± 1.33 | – | 89.75 ± 2.32 | 75.16 ± 2.30 | 6.18 ± 0.17 | 5.93 ± 0.19 | 110 | 80.74 ± 2.84 | 10.35 ± 0.17 | 6.75 ± 0.20 | 15.65 ± 0.20 | 12.50 ± 0.20 | 6.58 ± 0.20 | OH (%) [6]: 5.87 ± 0.17%
3 | O=c1/c(=C\[C@H](O)[C@@H](O)[C@H](O)CO)sc2nc3sc4c(c3c(=O)n12)CCCC4 [8d, (E)-2-((2S,3R,4R)-2,3,4,5-tetrahydroxypentylidene)-6,7,8,9-tetrahydro-5H-benzo [4,5]thieno [2,3-d]thiazolo [3,2-a]-pyrimidine-3,5(2H)-dione] | 51.52 ± 0.85 | 19.31 ± 0.23 | – | 13 ± 0.2 | 9.87 ± 0.21 µg/mL | 17.02 ± 0.21 mg Gallic Acid/g | 28.53 ± 0.30 | 33.99 ± 0.98 | – | 77.03 ± 1.82 | 65.40 ± 1.90 | 7.11 ± 0.18 | 5.61 ± 0.18 | 125 | 69.29 ± 2.28 | 11.28 ± 0.18 | 7.87 ± 0.21 | 16.77 ± 0.21 | 13.62 ± 0.21 | 7.66 ± 0.21 | OH (%) [6]: 6.84 ± 0.19%
4 | O=c1/c(=C\[C@@H](O)[C@H](O)[C@H](O)CO)sc2nc3sc4c(c3c(=O)n12)CCCC4 [8e, (E)-2-((2R,3S,4R)-2,3,4,5-tetrahydroxypentylidene)-6,7,8,9-tetrahydro-5H-benzo [4,5]thieno [2,3-d]thiazolo [3,2-a]pyrimidine-3,5(2H)-dione] | 6.80 ± 0.16 | 4.73 ± 0.05 | 16.3 | 62.2 ± 0.75 | 61.54 µg/mL and 61.54 ± 0.79 µg/mL | 68.69 mg Gallic Acid/g and 68.69 ± 0.79 mg Gallic Acid/g | 5.95 ± 0.12 | 3.81 ± 0.05 | 55.43 ± 0.75 | 10.17 ± 0.12 | 9.08 ± 0.11 | 50.90 ± 0.65 | 5.24 ± 0.17 | 134 | 9.14 ± 0.05 | 54.07 ± 0.65 | – | – | – | – | –
